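These data come from cells grown in 96-well plates and exposed to compound for 48 hours at five concentrations. GI50 is the concentration that inhibits growth by half.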 Activity calls are given as the source filed them. Rule as the data show it: active = GI50 up to about 1.1 µM and inactive = higher.
Columns and labels:
Test in all cases: DTP human tumour cell line panel, 48 h
CCRF-CEM = tested on: CCRF-CEM
UACC-257 = tested on: UACC-257
MOLT-4 = tested on: MOLT-4
SF-295 = tested on: SF-295
SNB-78 = tested on: SNB-78
XF498 = tested on: XF498
M19-MEL = tested on: M19-MEL
SK-MEL-28 = tested on: SK-MEL-28
SK-OV-3 = tested on: SK-OV-3
COLO 205 = tested on: COLO 205
DMS-273 = tested on: DMS-273
SW-620 = tested on: SW-620
SNB-19 = tested on: SNB-19
CAKI-1 = tested on: CAKI-1
SN12C = tested on: SN12C
A549 = tested on: A549
ACHN = tested on: ACHN
SNB-75 = tested on: SNB-75
DMS-114 = tested on: DMS-114
UACC-62 = tested on: UACC-62
LOX IMVI = tested on: LOX IMVI
OVCAR-4 = tested on: OVCAR-4
HCT-116 = tested on: HCT-116
UO-31 = tested on: UO-31
TK-10 = tested on: TK-10
SR = tested on: SR
OVCAR-8 = tested on: OVCAR-8
HL-60 = tested on: HL-60
LXFL 529 = tested on: LXFL 529
K562 = tested on: K562
RXF 393 = tested on: RXF 393
SF-539 = tested on: SF-539
A498 = tested on: A498
HOP-92 = tested on: HOP-92
HCT-15 = tested on: HCT-15
KM12 = tested on: KM12
EKVX = tested on: EKVX
SF-268 = tested on: SF-268
NCI-H23 = tested on: NCI-H23
SK-MEL-2 = tested on: SK-MEL-2
786-0 = tested on: 786-0
DLD-1 = tested on: DLD-1
NCI-H460 = tested on: NCI-H460
KM-20L2 = tested on: KM-20L2
SK-MEL-5 = tested on: SK-MEL-5
U-251 = tested on: U-251
RPMI-8226 = tested on: RPMI-8226
HCC 2998 = tested on: HCC 2998
HOP-62 = tested on: HOP-62
Malme-3M = tested on: Malme-3M
HT-29 = tested on: HT-29
OVCAR-5 = tested on: OVCAR-5
NCI-H522 = tested on: NCI-H522
HOP-18 = tested on: HOP-18
IGROV-1 = tested on: IGROV-1
M14 = tested on: M14
NCI-H226 = tested on: NCI-H226
OVCAR-3 = tested on: OVCAR-3

C[Si](C)(C)C(Sc1ccccc1)(Sc1ccccc1)Sc1ccccc1
GI50 (CCRF-CEM): 24 µM (inactive)
GI50 (UACC-257): 52.5 µM (inactive)
GI50 (MOLT-4): 4.28 µM (inactive)
GI50 (SF-295): 74.1 µM (inactive)
GI50 (SNB-78): > 100 µM (inactive)
GI50 (XF498): 30.8 µM (inactive)
GI50 (M19-MEL): 34.7 µM (inactive)
GI50 (SK-MEL-28): 46.7 µM (inactive)
GI50 (SK-OV-3): > 100 µM (inactive)
GI50 (COLO 205): 62.2 µM (inactive)
GI50 (DMS-273): > 100 µM (inactive)
GI50 (SW-620): 46.7 µM (inactive)
GI50 (SNB-19): > 100 µM (inactive)
GI50 (CAKI-1): > 100 µM (inactive)
GI50 (SN12C): > 100 µM (inactive)
GI50 (A549): 39.3 µM (inactive)
GI50 (ACHN): 43 µM (inactive)
GI50 (SNB-75): 40.5 µM (inactive)
GI50 (DMS-114): 54.8 µM (inactive)
GI50 (UACC-62): 26.4 µM (inactive)
GI50 (LOX IMVI): 58.5 µM (inactive)
GI50 (OVCAR-4): > 100 µM (inactive)
GI50 (HCT-116): 60.3 µM (inactive)
GI50 (UO-31): > 100 µM (inactive)
GI50 (TK-10): > 100 µM (inactive)
GI50 (SR): 35.7 µM (inactive)
GI50 (OVCAR-8): > 100 µM (inactive)
GI50 (HL-60): 35.2 µM (inactive)
GI50 (LXFL 529): 81.5 µM (inactive)
GI50 (K562): > 100 µM (inactive)
GI50 (RXF 393): 29.4 µM (inactive)
GI50 (SF-539): > 100 µM (inactive)
GI50 (A498): 76.9 µM (inactive)
GI50 (HOP-92): 17.1 µM (inactive)
GI50 (HCT-15): 50.5 µM
GI50 (KM12): 60.3 µM (inactive)
GI50 (EKVX): 95.5 µM (inactive)
GI50 (SF-268): 76.6 µM (inactive)
GI50 (NCI-H23): 22.3 µM (inactive)
GI50 (SK-MEL-2): 25.9 µM (inactive)
GI50 (786-0): > 100 µM (inactive)
GI50 (DLD-1): 53.6 µM (inactive)
GI50 (NCI-H460): > 100 µM (inactive)
GI50 (KM-20L2): 67.1 µM (inactive)
GI50 (SK-MEL-5): 67.9 µM (inactive)
GI50 (U-251): 57.7 µM (inactive)
GI50 (RPMI-8226): 41.7 µM (inactive)
GI50 (HCC 2998): 94 µM (inactive)

[N-]=[N+]=Nc1cc(=O)n(-c2ccccc2)c2ccccc12
GI50 (CCRF-CEM): > 100 µM (inactive)
GI50 (UACC-257): > 100 µM (inactive)
GI50 (HOP-62): > 100 µM (inactive)
GI50 (MOLT-4): > 100 µM (inactive)
GI50 (SF-295): > 100 µM (inactive)
GI50 (M19-MEL): > 100 µM (inactive)
GI50 (SK-MEL-28): > 100 µM (inactive)
GI50 (SK-OV-3): > 100 µM (inactive)
GI50 (COLO 205): > 100 µM (inactive)
GI50 (Malme-3M): > 100 µM (inactive)
GI50 (DMS-273): > 100 µM (inactive)
GI50 (SW-620): > 100 µM (inactive)
GI50 (CAKI-1): > 100 µM (inactive)
GI50 (SN12C): > 100 µM (inactive)
GI50 (HT-29): > 100 µM (inactive)
GI50 (OVCAR-5): > 100 µM (inactive)
GI50 (A549): > 100 µM (inactive)
GI50 (ACHN): > 100 µM (inactive)
GI50 (SNB-75): 70.8 µM (inactive)
GI50 (DMS-114): > 100 µM (inactive)
GI50 (UACC-62): > 100 µM (inactive)
GI50 (LOX IMVI): > 100 µM (inactive)
GI50 (OVCAR-4): > 100 µM (inactive)
GI50 (HCT-116): > 100 µM (inactive)
GI50 (UO-31): > 100 µM (inactive)
GI50 (TK-10): > 100 µM (inactive)
GI50 (SR): > 100 µM (inactive)
GI50 (OVCAR-8): > 100 µM (inactive)
GI50 (NCI-H522): > 100 µM (inactive)
GI50 (HL-60): > 100 µM (inactive)
GI50 (LXFL 529): > 100 µM (inactive)
GI50 (K562): > 100 µM (inactive)
GI50 (RXF 393): 63.1 µM (inactive)
GI50 (SF-539): > 100 µM (inactive)
GI50 (HCT-15): > 100 µM
GI50 (KM12): > 100 µM (inactive)
GI50 (HOP-18): > 100 µM (inactive)
GI50 (SF-268): > 100 µM (inactive)
GI50 (NCI-H23): > 100 µM (inactive)
GI50 (SK-MEL-2): > 100 µM (inactive)
GI50 (IGROV-1): > 100 µM (inactive)
GI50 (786-0): > 100 µM (inactive)
GI50 (DLD-1): > 100 µM (inactive)
GI50 (M14): > 100 µM (inactive)
GI50 (NCI-H460): > 100 µM (inactive)
GI50 (SK-MEL-5): > 100 µM (inactive)
GI50 (U-251): > 100 µM (inactive)
GI50 (NCI-H226): > 100 µM (inactive)
GI50 (RPMI-8226): > 100 µM (inactive)

CCOC(=O)C(=O)C(C#N)c1ccc(Cl)cc1 (stereo not given)
GI50 (UACC-257): > 100 µM (inactive)
GI50 (HOP-62): > 100 µM (inactive)
GI50 (MOLT-4): > 100 µM (inactive)
GI50 (SF-295): > 100 µM (inactive)
GI50 (SNB-78): > 100 µM (inactive)
GI50 (XF498): > 100 µM (inactive)
GI50 (M19-MEL): > 100 µM (inactive)
GI50 (SK-MEL-28): > 100 µM (inactive)
GI50 (SK-OV-3): > 100 µM (inactive)
GI50 (COLO 205): > 100 µM (inactive)
GI50 (Malme-3M): > 100 µM (inactive)
GI50 (DMS-273): > 100 µM (inactive)
GI50 (SW-620): > 100 µM (inactive)
GI50 (SNB-19): > 100 µM (inactive)
GI50 (CAKI-1): > 100 µM (inactive)
GI50 (SN12C): > 100 µM (inactive)
GI50 (HT-29): > 100 µM (inactive)
GI50 (OVCAR-5): > 100 µM (inactive)
GI50 (A549): > 100 µM (inactive)
GI50 (ACHN): > 100 µM (inactive)
GI50 (SNB-75): > 100 µM (inactive)
GI50 (DMS-114): > 100 µM (inactive)
GI50 (UACC-62): > 100 µM (inactive)
GI50 (LOX IMVI): > 100 µM (inactive)
GI50 (OVCAR-4): > 100 µM (inactive)
GI50 (HCT-116): > 100 µM (inactive)
GI50 (UO-31): 88.1 µM (inactive)
GI50 (TK-10): > 100 µM (inactive)
GI50 (OVCAR-8): > 100 µM (inactive)
GI50 (NCI-H522): > 100 µM (inactive)
GI50 (HL-60): > 100 µM (inactive)
GI50 (LXFL 529): > 100 µM (inactive)
GI50 (K562): > 100 µM (inactive)
GI50 (RXF 393): > 100 µM (inactive)
GI50 (SF-539): > 100 µM (inactive)
GI50 (A498): > 100 µM (inactive)
GI50 (HOP-92): > 100 µM (inactive)
GI50 (HCT-15): > 100 µM
GI50 (OVCAR-3): > 100 µM (inactive)
GI50 (EKVX): > 100 µM (inactive)
GI50 (SF-268): > 100 µM (inactive)
GI50 (NCI-H23): > 100 µM (inactive)
GI50 (SK-MEL-2): > 100 µM (inactive)
GI50 (IGROV-1): > 100 µM (inactive)
GI50 (786-0): > 100 µM (inactive)
GI50 (DLD-1): > 100 µM (inactive)
GI50 (M14): > 100 µM (inactive)
GI50 (NCI-H460): > 100 µM (inactive)
GI50 (KM-20L2): > 100 µM (inactive)
GI50 (SK-MEL-5): > 100 µM (inactive)
GI50 (U-251): > 100 µM (inactive)
GI50 (NCI-H226): 62.4 µM (inactive)
GI50 (RPMI-8226): > 100 µM (inactive)

Source: ChEMBL document CHEMBL1201862, “PubChem BioAssay data set” (2004)
